Values quoted from earlier work as cited in patent publication US20240016826A1, “COMPOSITION, PHARMACEUTICAL COMPOSITION, USE OF A STABLE TOPICAL COMPOSITION COMPRISING A NANOEMULSION AND OF AT LEAST ONE ANTILEISHMANIAL COMPOUND, AND METHOD FOR THE TREATMENT OF CUTANEOUS LEISHMANIASIS” (priority 2020, published 2024).

Tested on: L. (L.) major
Details: Old World patients, cutaneous leishmaniasis due to L. (L.) major (MOHEBALI et al., 2007)

CCCCCCCCCCCCCCCCOP(=O)([O-])OCC[N+](C)(C)C [miltefosine, hexadecylphosphocholine]
cure rate: 93%
